Key:
[1] = tested on: Aspergillus fumigatus (TR34-L98H strain); experiment: Aspergillus fumigatus invasion in human alveoli bilayers (transwells), GM in lower chamber; format: cell-based; details: Compound (I) 1 μg/mL upper chamber, Posaconazole 0.1 μg/mL lower chamber
Method: In vitro models of human alveoli, consisting of a bilayer of human alveolar epithelial cells and endothelial cells, were prepared as previously described (Hope et al., 2007). This system allows administration of a test compound to the upper (“air” space) and/or lower (“systemic” space) compartments. This flexibility has been exploited to explore the effects of combination treatments by dosing Compound (I) to the upper chamber and posaconazole or other anti-fungal agents to the lower chamber. Primary human pulmonary artery endothelial cells (HPAEC) were harvested and diluted to 10^6 cells/mL in EGM-2 media (Lonza, Basel, Switzerland). Transwells were inverted and the cell suspension (100 μL/well) was applied to the base of each transwell. The inverted transwells were incubated at RT within a flow hood for 2 hr after which they were turned upright. EGM-2 media was added to the lower (700 μL/well) and upper (100 μL/well) compartments and the transwells were incubated for 48 hr (37° C., 5% CO2). The EGM-2 media in the lower compartment was then replaced with fresh EGM-2 media. A549 cells were harvested and diluted to 5×10^5 cells/mL in 10% EBM, then added to the upper compartment (100 μL/well) of all transwells and the plates incubated for 72 hr (37° C., 5% CO2). Conidia of Aspergillus fumigatus (the itraconazole sensitive strain NCPF2010 and the itraconazole resistant strain TR34-L98H) were cultured separately in Sabouraud dextrose agar for 3 days. A stock conidia suspension of either strain was prepared from a Sabouraud dextrose agar culture by washing with PBS-tween (10 mL; PBS containing 0.05% Tween-20, 100 U/mL Penicillin and 100 U/mL Streptomycin). The conidia count was assessed using a Neubauer haemocytometer and adjusted to 10^6 conidia/mL with PBS. A working stock of conidia was prepared in EBM (conc of 10^5 conidia/mL) immediately prior to use.
Test and reference compounds (or neat DMSO as the vehicle) were added to the appropriate wells of 24-well plates (3 μL/well containing 600 μL of 2% FBS EBM) for lower compartment treatment and to 96-well plates (1 μL/well containing 200 μL of 2% FBS EBM) for the treatment of the upper compartment, to provide a final DMSO concentration of 0.5%. The media in the upper compartment was aspirated and that containing the appropriate test and reference compounds, or vehicle, were added (100 μL/well). Transwells were then transferred into the 24-well plate containing the test and reference compounds or DMSO vehicle. After incubation for 1 hr (35° C., 5% CO2) the conidia suspension (10 μL/well) was added to the upper compartment of each transwell. Plates were then incubated for 24 hr (35° C., 5% CO2). Supernatants from each compartment (5 μL/compartment) were collected and stored (−20° C.). Media was replaced daily after collection of the supernatants and all wells were treated with test and reference compounds or with DMSO, as described above, for 3 days. Samples continued to be collected until fungal growth was visible by eye in all transwells. The levels of GM in the supernatant in lower compartment were then measured by ELISA (BioRad, CA, USA) as an index of Aspergillus fumigatus invasion.

[2] = tested on: Aspergillus fumigatus (ATCC 13073); experiment: Survival of severely immunocompromised, neutropenic mice infected with Aspergillus fumigatus, monotherapy or combination; format: in vivo; details: Compound (I) 0.4 mg/mL (in), Posaconazole 1 mg/kg (po), once daily days 1-6
Method: On day 0, animals were infected intranasally with 35 μL of the spore suspension (1.67×10^8 spores/mL in physiological saline) of Aspergillus fumigatus (ATCC 13073 [strain: NIH 5233]). Compound (I) prepared as a suspension in isotonic saline (0.4 mg/mL) was dosed once daily by an intra-nasal injection (35 μL/mouse) on days 1-6 after infection. Posaconazole (1 mg/kg) was given orally once daily on days 1-6 after infection. Body weight and survival were monitored daily up to day 7.

| Compound | DFB50 (days taken to reach a fungal burden of 50% of control) [1] [days] | GM Levels in the Lower Chamber, OD value ([1]; Treatment Day 0) [OD] | GM Levels in the Lower Chamber, OD value ([1]; Treatment Day 1) [OD] | GM Levels in the Lower Chamber, OD value ([1]; Treatment Day 2) [OD] | GM Levels in the Lower Chamber, OD value ([1]; Treatment Day 3) [OD] | GM Levels in the Lower Chamber, OD value ([1]; Treatment Day 4) [OD] | Median survival [2] [days] | No. of survivors on day 7 [2] | survivors on day 7 (%) [2] [%] | GM Levels in the Lower Chamber, % inhibition vs. control ([1]; Treatment Day 1) [%] | GM Levels in the Lower Chamber, % inhibition vs. control ([1]; Treatment Day 2) [%] | GM Levels in the Lower Chamber, % inhibition vs. control ([1]; Treatment Day 3) [%] | GM Levels in the Lower Chamber, % inhibition vs. control ([1]; Treatment Day 4) [%] |
| --- | --- | --- | --- | --- | --- | --- | --- | --- | --- | --- | --- | --- | --- |
| Cc1cc(N2CCN(c3ccc(C(=O)Nc4ccc(F)cc4)cc3)CC2)ccc1OC[C@@H]1CO[C@@](Cn2cncn2)(c2ccc(F)cc2F)C1 [Compound (I), 4-(4-(4-(((3R,5R)-5-((1H-1,2,4-triazol-1-yl)methyl)-5-(2,4-difluorophenyl)tetrahydrofuran-3-yl)methoxy)-3-methylphenyl)piperazin-1-yl)-N-(4-fluorophenyl)benzamide] | 1.10 | 0 | 0.35 | 0.99 | 0.99 | 1.01 | 6 | 0/6 | 0 |  |  |  |  |
| CC[C@@H]([C@H](C)O)n1ncn(-c2ccc(N3CCN(c4ccc(OC[C@@H]5CO[C@@](Cn6cncn6)(c6ccc(F)cc6F)C5)cc4)CC3)cc2)c1=O [Posaconazole] | 1.64 | 0 | 0.039 | 1.02 | 0.97 | 1.02 | 6.5 | 0/6 | 0 | 88 | −2.7 | 1.7 | −1.4 |

From US20210238169A1, “PROCESS FOR PREPARING A COMPOUND OF FORMULA (XIII)” (PULMOCIDE LIMITED, priority 2014, published 2021)
